Measured values taken from patent publication EP0428132A1, “Pradimicin derivatives” (Bristol-Myers Squibb Company, priority 1989, dated 1991).
In brackets after ≈: the same amount, converted by molar mass.

Experiments:
[1] = test system: Candida albicans A9540; assay: Intravenous Candida albicans infection mouse model, Table 2 part A; type: in vivo; details: drug administered once just after infection, 20 days after fungal challenge, method of Litchfield and Wilcoxon, male ICR mice
Method: Several compounds were also evaluated in an intravenous Candida albicans […] infection mouse model. The test organism was suspended in saline approximately 10 times the median lethal dose of the fungus (10⁶ cells/mouse) were used to infect intravenously male ICR mice weighing 20 to 24 g. Groups of five mice at each dose level were given the test compounds intravenously or intramuscularly. The 50% protective dose (PD₅₀) was calculated from survival rates recorded 20 or 21 days after the fungal challenge. Control animals died between 7 to 15 days.

[2] = test system: FA21436; assay: In vitro antifungal activity, serial agar dilution method (Table 1); type: cell-based, Asoergukkys flavus; details: for MIC: 40 h, pH 7, read-out: MIC, Asoergukkys flavus FA21436; for Partial Inhibition, Asoergukkys flavus FA21436: value in parentheses = Partial Inhibition, Sabouraud dextrose agar (pH 7.0), 28°C for 40 hours
Method: (§1) The inoculum size was adjusted to 10⁶ cells/ml, and a volume of approximately 0.003 ml of fungal suspension was applied to the surface of the antibiotic containing agar plates with a multiinoculator. After incubation, the lowest concentration of antibiotic causing virtually complete inhibition of fungal growth was determined as the minimum inhibitory concentration (MIC). Table 1. [table]

[3] = physchem
Method: The sample (3 ∼ 3.5 mg) was suspended in 1 ml of PBS(-) or PBS(+), sonicated at 30°C for 10 minutes, and allowed to stand at room temperature for 2 hours. The resulting solution or suspension was centrifuged at 12,000 rpm for 10 minutes. The supernatant (pH 6.7 ∼ 7.2) was diluted (5 x or 50 x) with 0.01N NaOH (pH ca. 11.5) and its UV absorption at 500 nm was measured. The solubility was assessed by the absorption coefficient value with reference to the standard. […] The zwitterionic form sample was used for the solubility test as it is. The hydrochloride salt sample (3 mg) was dissolved in 3 ml of distilled water and neutralized with 0.01N NaOH, and then the solution was lyophilized to give a test sample.
Dulbecco's phosphate buffered saline (PBS) solution was used. Preparation of PBS(-) solution: One PBS(-) tablet (Flow Laboratories, Cat. No. 28-103-05) was dissolved in 100 ml distilled water, and the solution was autoclaved for 10 minutes at 115°C. This solution contains 0.2 g/L of KCl, 0.2 g/L of KH₂PO₄, 8 g/L of NaCl, and 1.15 g/L of Na₂HPO₄. Preparation of PBS(+) solution: One PBS(-) tablet was dissolved in 80 ml distilled water; 10 mg of CaCl₂ was dissolved in 10 ml distilled water; 10 mg of MgCl₂, 6H₂O was dissolved in 10 ml distilled water. These solutions were separately autoclaved, as described above, and mixed when cooled.

[4] = test system: Cryptococcus neoformans D49; assay: In vitro antifungal activity, serial agar dilution method (Table 1); type: cell-based; details: Cryptococcus neoformans, D49, 40 h, pH 7, read-out: MIC, Cryptococcus neoformans D49
Method: as §1

[5] = test system: Candida albicans A9540; assay: as above; type: cell-based; details: Sabouraud dextrose agar (pH 7.0), 28°C for 40 hours; for MIC: Candida albicans, A9540
Method: as §1

[6] = test system: Sprotricosis schenckii IFO8158; assay: as above; type: cell-based; details: 40 h, pH 7, read-out: MIC, Sprotricosis schenckii IFO8158
Method: as §1

[7] = test system: Mucor spinosus IFO5317; assay: as above; type: cell-based; details: Sabouraud dextrose agar (pH 7.0), 28°C for 40 hours; for MIC: Mucor spinosus, IFO5317; for Partial Inhibition, Mucor spinosus IFO5317: value in parentheses = Partial Inhibition
Method: as §1

[8] = test system: Blastomyces dermatidis D40; assay: as above; type: cell-based; details: Blastomyces, D40, 40 h, pH 7, read-out: MIC, Blastomyces dermatidis D40
Method: as §1

[9] = test system: Cryptococcus neoformans IAM4514; assay: as above; type: cell-based; details: Cryptococcus neoformans, IAM4514; Sabouraud dextrose agar (pH 7.0); 28°C for 40 hours
Method: as §1

[10] = test system: Aspergillus fumigatus IAM2034; assay: as above; type: cell-based; details: Aspergillus fumigatus, IAM2034; Sabouraud dextrose agar (pH 7.0); 28°C for 40 hours
Method: as §1

[11] = test system: Fusarium moniliforme A2284; assay: as above; type: cell-based; details: Fusarium verticillioides, A2284; Sabouraud dextrose agar (pH 7.0); 28°C for 40 hours
Method: as §1

[12] = test system: Candida albicans IAM4888; assay: as above; type: cell-based; details: Sabouraud dextrose agar (pH 7.0), 28°C for 40 hours; for MIC: Candida albicans, IAM4888
Method: as §1

[13] = test system: Aspergillus fumigatus IAM2530; assay: as above; type: cell-based; details: Aspergillus fumigatus, IAM2530; Sabouraud dextrose agar (pH 7.0); 28°C for 40 hours
Method: as §1

[14] = test system: Petriellidium boydii IFO8078; assay: as above; type: cell-based; details: Scedosporium boydii, IFO8078; Sabouraud dextrose agar (pH 7.0); 28°C for 40 hours
Method: as §1

[15] = test system: Trichophyton mentagrophytes D155; assay: as above; type: cell-based; details: Trichophyton mentagrophytes, D155; Sabouraud dextrose agar (pH 7.0); 28°C for 40 hours
Method: as §1

[16] = test system: Trichophyton mentagrophytes #4329; assay: as above; type: cell-based; details: Sabouraud dextrose agar (pH 7.0), 28°C for 40 hours; for MIC: Trichophyton mentagrophytes
Method: as §1

[17] = value in parentheses = Partial Inhibition

SMILES	PD₅₀ [1]	MIC [2]	Partial Inhibition, Asoergukkys flavus FA21436 [2]	MIC [4]	MIC [5]	MIC [6]	MIC [7]	MIC [8]	MIC [9]	MIC [10]	MIC [11]	MIC [12]	MIC [13]	MIC [14]	MIC [15]	MIC [16]	solubility at 2 h ([3]; Method II (+): PBS(+))	Partial Inhibition, Mucor spinosus IFO5317 [7]	also measured
COc1cc(O)c2c(c1)C(=O)c1c(cc3c(c1O)-c1c(cc(C)c(C(=O)N[C@H](C)C(=O)O)c1O)[C@H](O[C@@H]1O[C@H](C)[C@H](NCS(=O)(=O)O)[C@H](O[C@@H]4OC[C@@H](O)[C@H](O)[C@H]4O)[C@H]1O)[C@H]3O)C2=O [Ex. 7, N-(sodiosulfomethyl) pradimicin C]	7.2 mg/kg	> 50 µg/mL	3.1 µg/mL	0.4 µg/mL (≈ 0.434 µM)	3.1 µg/mL (≈ 3.37 µM)	1.6 µg/mL (≈ 1.74 µM)	> 50 µg/mL	3.1 µg/mL (≈ 3.37 µM)	0.4 µg/mL (≈ 0.434 µM)	> 50 µg/mL	> 50 µg/mL	3.1 µg/mL (≈ 3.37 µM)	3.1 µg/mL (≈ 3.37 µM)	> 50 µg/mL	50 µg/mL (≈ 54.3 µM)	25 µg/mL (≈ 27.1 µM)			solubility at 2 h ([3]; Method II (-): PBS(-)): 3 µg/mL (≈ 3.26 µM); Partial Inhibition, Trichophyton mentagrophytes #4329 [16, 17]: 3.1 µg/mL
COc1cc(O)c2c(c1)C(=O)c1c(cc3c(c1O)-c1c(cc(C)c(C(=O)N[C@H](C)C(=O)O)c1O)[C@H](O[C@@H]1O[C@H](C)[C@H](N(C)C=O)[C@H](O[C@@H]4OC[C@@H](O)[C@H](O)[C@H]4O)[C@H]1O)[C@H]3O)C2=O [Ex. 9, N-formyl pradimicin A]	>50 mg/kg	> 100 µg/mL		25 µg/mL (≈ 28.8 µM)	25 µg/mL (≈ 28.8 µM)	50 µg/mL (≈ 57.6 µM)	> 100 µg/mL	100 µg/mL (≈ 115 µM)	12.5 µg/mL (≈ 14.4 µM)	50 µg/mL (≈ 57.6 µM)	> 100 µg/mL	25 µg/mL (≈ 28.8 µM)	50 µg/mL (≈ 57.6 µM)		25 µg/mL (≈ 28.8 µM)	25 µg/mL (≈ 28.8 µM)	> 32000 µg/mL	50.0 µg/mL	
COc1cc(O)c2c(c1)C(=O)c1c(cc3c(c1O)-c1c(cc(C)c(C(=O)N[C@H](C)C(=O)O)c1O)[C@H](O[C@@H]1O[C@H](C)[C@H](N(C)C(=O)CN)[C@H](O[C@@H]4OC[C@@H](O)[C@H](O)[C@H]4O)[C@H]1O)[C@H]3O)C2=O [Ex. 10, N-glycyl pradimicin A]	30 mg/kg	> 100 µg/mL		1.6 µg/mL (≈ 1.78 µM)	12.5 µg/mL (≈ 13.9 µM)	12.5 µg/mL (≈ 13.9 µM)	> 100 µg/mL	12.5 µg/mL (≈ 13.9 µM)	1.6 µg/mL (≈ 1.78 µM)	100 µg/mL (≈ 111 µM)	> 100 µg/mL	6.3 µg/mL (≈ 7.02 µM)	12.5 µg/mL (≈ 13.9 µM)		12.5 µg/mL (≈ 13.9 µM)	12.5 µg/mL (≈ 13.9 µM)	1000 µg/mL (≈ 1110 µM)		
COc1cc(O)c2c(c1)C(=O)c1c(cc3c(c1O)-c1c(cc(C)c(C(=O)N[C@H](C)C(=O)O)c1O)[C@H](O[C@@H]1O[C@H](C)[C@H](N(C)C(=O)CCN)[C@H](O[C@@H]4OC[C@@H](O)[C@H](O)[C@H]4O)[C@H]1O)[C@H]3O)C2=O [Ex. 11, N-(β-alanyl) pradimicin A]	36 mg/kg	> 100 µg/mL	>100.0 (100.0) µg/ml	1.6 µg/mL (≈ 1.75 µM)	12.5 µg/mL (≈ 13.7 µM)	6.3 µg/mL (≈ 6.91 µM)	> 100 µg/mL	12.5 µg/mL (≈ 13.7 µM)	1.6 µg/mL (≈ 1.75 µM)	100 µg/mL (≈ 110 µM)	> 100 µg/mL	12.5 µg/mL (≈ 13.7 µM)	50 µg/mL (≈ 54.8 µM)	> 100 µg/mL	100 µg/mL (≈ 110 µM)	100 µg/mL (≈ 110 µM)	250 µg/mL (≈ 274 µM)	25.0 µg/mL	Partial Inhibition, Candida albicans A9540 [5, 17]: 6.3 µg/mL; Partial Inhibition, Candida albicans IAM4888 [12, 17]: 6.3 µg/mL
